One data set deals with Nav 1.7 (Homo sapiens (Human), UniProt Q15858). The data set can be described thus: Nav 1.7 in vitro assay (IonWorks Quattro population patch-clamp). Conditions: 293 cells stably transfected with Nav 1.7; 26th pulse to -20 mV, 5 Hz. It counts as cell-based. As to the method: (§1) Nav 1.7 and Nav 1.5 In Vitro Assay
(§2) 293 cells stably transfected with either Nav 1.7 or with Nav 1.5 were recorded in population patch-clamp mode with the IonWorks® Quattro automated electrophysiology system in accordance with the manufacturer's specifications (Molecular Devices, LLC, Sunnyvale, Calif.). Sodium channel currents were measured in response to a train of depolarizations that induced successively greater inactivation.
(§3) Cells were held at −110 mV for three seconds (Nav 1.7) or half a second (Nav 1.5) from a holding voltage of −15 mV, then put through a series of 26 pulses of 150 msec duration to −20 mV at a frequency of 5 Hz. Cells were then left unclamped for a period of 3 to 8 minutes while a single concentration of test compound was added. Cells were then reclamped and put through the same voltage protocol. Current at the end of the 26th pulse to −20 mV was subtracted from the peak current evoked by the 26th pulse to −20 mV to correct for leak current. Percent block was calculated for each concentration in duplicate, and IC50 curves were fitted to percent block as a function of concentration.
Background: The patch-clamp technique gives a direct electrical read-out from membranes.

For the next data set, the target named is Nav 1.5 (Homo sapiens (Human), UniProt Q14524). Briefly: Nav 1.5 in vitro assay (IonWorks Quattro population patch-clamp). It counts as cell-based. Conditions: 293 cells stably transfected with Nav 1.5; 26th pulse to -20 mV, 5 Hz. Here is the method:
as §1, §2, §3

We go through 32 molecules from patent US9079902B2, “Heteroaryl sodium channel inhibitors” (AMGEN INC., priority 2011, dated 2015).

Sequence of Nav 1.5 (Q14524 whole entry): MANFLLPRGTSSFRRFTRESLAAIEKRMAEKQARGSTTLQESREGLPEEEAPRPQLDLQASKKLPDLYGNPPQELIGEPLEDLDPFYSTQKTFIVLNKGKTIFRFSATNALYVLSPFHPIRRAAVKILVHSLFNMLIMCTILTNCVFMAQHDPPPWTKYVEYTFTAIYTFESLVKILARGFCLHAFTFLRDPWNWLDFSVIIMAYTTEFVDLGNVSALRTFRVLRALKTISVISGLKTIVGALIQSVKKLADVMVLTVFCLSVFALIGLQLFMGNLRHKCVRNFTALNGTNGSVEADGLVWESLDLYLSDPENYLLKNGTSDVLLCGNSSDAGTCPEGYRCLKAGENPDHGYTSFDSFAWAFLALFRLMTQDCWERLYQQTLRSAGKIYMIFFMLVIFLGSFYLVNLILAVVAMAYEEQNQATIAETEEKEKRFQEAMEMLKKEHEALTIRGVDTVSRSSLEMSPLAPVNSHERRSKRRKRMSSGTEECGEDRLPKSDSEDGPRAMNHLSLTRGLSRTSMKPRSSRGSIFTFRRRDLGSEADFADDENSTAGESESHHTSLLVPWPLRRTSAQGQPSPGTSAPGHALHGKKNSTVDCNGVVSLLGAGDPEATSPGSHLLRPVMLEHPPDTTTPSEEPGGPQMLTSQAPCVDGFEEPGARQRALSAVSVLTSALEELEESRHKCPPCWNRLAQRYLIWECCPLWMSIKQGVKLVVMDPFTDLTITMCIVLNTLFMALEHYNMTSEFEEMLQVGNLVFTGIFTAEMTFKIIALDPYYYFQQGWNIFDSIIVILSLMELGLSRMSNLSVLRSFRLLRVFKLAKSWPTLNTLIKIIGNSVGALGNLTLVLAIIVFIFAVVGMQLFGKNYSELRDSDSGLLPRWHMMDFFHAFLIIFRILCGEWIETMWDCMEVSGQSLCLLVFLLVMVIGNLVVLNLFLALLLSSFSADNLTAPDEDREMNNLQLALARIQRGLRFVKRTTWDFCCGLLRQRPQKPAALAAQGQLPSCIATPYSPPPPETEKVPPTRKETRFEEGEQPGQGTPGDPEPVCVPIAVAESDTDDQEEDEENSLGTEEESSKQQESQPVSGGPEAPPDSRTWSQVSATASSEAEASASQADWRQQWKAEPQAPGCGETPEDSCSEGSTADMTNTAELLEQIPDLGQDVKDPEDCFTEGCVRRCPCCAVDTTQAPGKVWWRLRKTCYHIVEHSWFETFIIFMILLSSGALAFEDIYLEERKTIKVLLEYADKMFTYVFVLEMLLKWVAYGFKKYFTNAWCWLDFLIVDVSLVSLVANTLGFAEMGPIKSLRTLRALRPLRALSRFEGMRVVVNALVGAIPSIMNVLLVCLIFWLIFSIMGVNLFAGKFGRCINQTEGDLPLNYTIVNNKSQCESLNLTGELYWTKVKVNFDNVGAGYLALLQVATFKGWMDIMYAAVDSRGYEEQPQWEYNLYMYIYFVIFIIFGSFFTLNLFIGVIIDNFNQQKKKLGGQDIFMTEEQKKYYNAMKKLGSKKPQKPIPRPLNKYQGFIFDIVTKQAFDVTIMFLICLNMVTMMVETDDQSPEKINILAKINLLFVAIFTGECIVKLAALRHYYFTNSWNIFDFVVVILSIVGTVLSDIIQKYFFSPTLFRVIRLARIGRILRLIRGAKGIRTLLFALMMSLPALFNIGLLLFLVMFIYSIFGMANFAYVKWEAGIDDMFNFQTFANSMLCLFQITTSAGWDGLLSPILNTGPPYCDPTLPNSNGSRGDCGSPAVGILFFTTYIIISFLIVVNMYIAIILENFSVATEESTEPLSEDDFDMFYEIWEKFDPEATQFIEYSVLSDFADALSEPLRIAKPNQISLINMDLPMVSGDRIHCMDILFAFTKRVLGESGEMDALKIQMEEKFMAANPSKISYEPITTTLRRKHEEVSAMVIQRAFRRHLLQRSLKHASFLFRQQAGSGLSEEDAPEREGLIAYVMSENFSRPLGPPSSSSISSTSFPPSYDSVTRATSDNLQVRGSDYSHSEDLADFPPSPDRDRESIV
Sequence of Nav 1.7 (Q15858 whole entry): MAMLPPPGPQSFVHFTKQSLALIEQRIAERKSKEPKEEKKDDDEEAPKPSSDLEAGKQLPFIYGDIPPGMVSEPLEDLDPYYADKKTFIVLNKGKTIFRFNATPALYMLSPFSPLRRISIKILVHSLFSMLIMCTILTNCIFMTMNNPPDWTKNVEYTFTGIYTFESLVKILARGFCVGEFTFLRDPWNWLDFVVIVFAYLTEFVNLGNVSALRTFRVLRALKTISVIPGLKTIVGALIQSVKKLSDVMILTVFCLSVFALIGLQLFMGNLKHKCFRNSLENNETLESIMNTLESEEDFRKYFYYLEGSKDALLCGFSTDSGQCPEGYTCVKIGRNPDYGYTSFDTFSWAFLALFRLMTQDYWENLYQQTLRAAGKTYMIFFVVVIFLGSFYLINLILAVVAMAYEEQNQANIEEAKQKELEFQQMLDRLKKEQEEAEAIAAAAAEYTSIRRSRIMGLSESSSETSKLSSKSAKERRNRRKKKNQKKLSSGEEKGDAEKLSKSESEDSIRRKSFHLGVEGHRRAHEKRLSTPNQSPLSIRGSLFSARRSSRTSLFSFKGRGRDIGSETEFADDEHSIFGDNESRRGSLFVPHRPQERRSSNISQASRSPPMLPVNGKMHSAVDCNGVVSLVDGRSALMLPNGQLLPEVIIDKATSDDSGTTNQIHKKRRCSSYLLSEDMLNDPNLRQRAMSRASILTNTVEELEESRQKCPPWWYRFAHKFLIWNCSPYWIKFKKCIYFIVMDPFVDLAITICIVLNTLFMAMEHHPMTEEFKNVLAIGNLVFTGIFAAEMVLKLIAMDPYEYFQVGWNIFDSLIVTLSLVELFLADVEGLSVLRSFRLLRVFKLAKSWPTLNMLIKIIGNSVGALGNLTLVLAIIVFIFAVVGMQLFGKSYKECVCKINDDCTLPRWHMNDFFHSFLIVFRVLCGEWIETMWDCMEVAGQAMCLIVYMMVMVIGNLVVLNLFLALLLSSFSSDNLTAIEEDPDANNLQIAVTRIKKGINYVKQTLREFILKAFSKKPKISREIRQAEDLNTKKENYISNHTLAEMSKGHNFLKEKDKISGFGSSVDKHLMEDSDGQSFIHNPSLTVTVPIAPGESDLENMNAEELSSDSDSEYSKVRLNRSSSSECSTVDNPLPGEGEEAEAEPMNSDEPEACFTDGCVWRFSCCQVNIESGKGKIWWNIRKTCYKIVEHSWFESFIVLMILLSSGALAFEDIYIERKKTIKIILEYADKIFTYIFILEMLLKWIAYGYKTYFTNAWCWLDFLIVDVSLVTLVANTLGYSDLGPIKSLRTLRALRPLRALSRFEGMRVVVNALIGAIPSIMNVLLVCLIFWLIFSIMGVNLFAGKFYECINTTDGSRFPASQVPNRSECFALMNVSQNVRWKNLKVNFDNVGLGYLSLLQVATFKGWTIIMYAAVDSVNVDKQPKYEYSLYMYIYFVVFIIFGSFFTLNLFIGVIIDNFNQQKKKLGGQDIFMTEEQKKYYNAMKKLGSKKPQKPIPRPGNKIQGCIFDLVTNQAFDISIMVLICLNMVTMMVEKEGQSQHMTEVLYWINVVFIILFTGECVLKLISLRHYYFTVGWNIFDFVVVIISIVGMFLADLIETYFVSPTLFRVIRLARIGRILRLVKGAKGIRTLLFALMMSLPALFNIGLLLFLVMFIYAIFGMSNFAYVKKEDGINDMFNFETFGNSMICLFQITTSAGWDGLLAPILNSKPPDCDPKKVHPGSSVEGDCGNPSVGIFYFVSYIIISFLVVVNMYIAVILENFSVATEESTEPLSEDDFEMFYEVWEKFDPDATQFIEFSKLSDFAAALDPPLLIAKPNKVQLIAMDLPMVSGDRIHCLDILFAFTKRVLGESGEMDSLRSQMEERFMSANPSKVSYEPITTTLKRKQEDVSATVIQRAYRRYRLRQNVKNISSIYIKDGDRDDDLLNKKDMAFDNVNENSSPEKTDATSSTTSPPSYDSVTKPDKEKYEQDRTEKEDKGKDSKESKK

The IC50 is the concentration at which inhibition is half-maximal. High values mean a need for much substance, low ones inhibition by little substance. For `Cn1nccc1-c1cc(Cl)ccc1-c1c[nH]c2cc(S(=O)(=O)Nc3ncns3)ccc12` [Example 1, 3-(4-Chloro-2-(1-Methyl-1H-Pyrazol-5-yl)Phenyl)-N-(1,2,4-Thiadiazol-5-yl)-1H-Indole-6-Sulfonamide], the half-inhibitory concentration (IC50) is 445 nM against Nav 1.7 and greater than 10 µM on Nav 1.5.

Turning to `Cn1nccc1-c1cc(Cl)ccc1-c1cn(C)c2cc(S(=O)(=O)Nc3ncns3)ccc12` [Example 2, 3-(4-Chloro-2-(1-Methyl-1H-Pyrazol-5-yl)Phenyl)-1-Methyl-N-(1,2,4-Thiadiazol-5-yl)-1H-Indole-6-Sulfonamide], the IC50 against Nav 1.7 is 253 nM; against Nav 1.5 it was greater than 10 µM.

Turning to `CC(C)n1cc(-c2ccc(C(F)(F)F)cc2-c2ccnn2C)c2ccc(S(=O)(=O)Nc3ncns3)cc21` [Example 3, 1-Isopropyl-3-(2-(1-Methyl-1H-Pyrazol-5-yl)-4-(Trifluoromethyl)Phenyl)-N-(1,2,4-Thiadiazol-5-yl)-1H-Indole-6-Sulfonamide], the IC50 against Nav 1.7 was 1930 nM; on Nav 1.5, greater than 10 µM.

As for `CC(=O)n1cc(-c2ccc(C(F)(F)F)cc2-c2ccnn2C)c2ccc(S(=O)(=O)Nc3ncns3)cc21` [Example 4, 1-Acetyl-3-(2-(1-Methyl-1H-Pyrazol-5-yl)-4-(Trifluoromethyl)Phenyl)-N-(1,2,4-Thiadiazol-5-yl)-1H-Indole-6-Sulfonamide], the IC50 against Nav 1.7 is 50.5 nM; on Nav 1.5 it was greater than 10 µM.

With `Cn1nccc1-c1cc(C(F)(F)F)ccc1-c1c[nH]c2cc(S(=O)(=O)Nc3ncns3)ccc12` [Example 5, 3-(2-(1-Methyl-1H-Pyrazol-5-yl)-4-(Trifluoromethyl)Phenyl)-N-(1,2,4-Thiadiazol-5-yl)-1H-Indole-6-Sulfonamide], the 50% inhibitory concentration (IC50) was 724 nM against Nav 1.7 and greater than 10 µM against Nav 1.5.

For `COC(=O)n1cc(-c2ccc(C(F)(F)F)cc2-c2ccnn2C)c2ccc(S(=O)(=O)Nc3ncns3)cc21` [Example 6, Methyl 6-(N-(1,2,4-Thiadiazol-5-yl)Sulfamoyl)-3-(2-(1-Methyl-1H-Pyrazol-5-yl)-4-(Trifluoromethyl)Phenyl)-1H-Indole-1-Carboxylate], the IC50 against Nav 1.7 is 356 nM; against Nav 1.5 it was greater than 10 µM.

Take `Cn1nccc1-c1cc(C(F)(F)F)ccc1-c1cn(S(C)(=O)=O)c2cc(S(=O)(=O)Nc3ncns3)ccc12` [Example 7, 3-(2-(1-Methyl-1H-Pyrazol-5-yl)-4-(Trifluoromethyl)Phenyl)-1-(Methylsulfonyl)-N-(1,2,4-Thiadiazol-5-yl)-1H-Indole-6-Sulfonamide]: the values for the half-maximal inhibitory concentration (IC50) on Nav 1.7 and against Nav 1.5 were 532 nM and greater than 10 µM, respectively.

With `Cn1nccc1-c1cc(C(F)(F)F)ccc1-c1cn(C)c2cc(S(=O)(=O)Nc3ncns3)ccc12` [Example 8, 1-Methyl-3-(2-(1-Methyl-1H-Pyrazol-5-yl)-4-(Trifluoromethyl)Phenyl)-N-(1,2,4-Thiadiazol-5-yl)-1H-Indole-6-Sulfonamide], the IC50 is 147 nM against Nav 1.7 and greater than 10 µM against Nav 1.5.

With `Cn1cc(-c2ccc(C(F)(F)F)c(Cl)c2)c2ccc(S(=O)(=O)Nc3ncns3)cc21` [Example 24, 3-(3-Chloro-4-(Trifluoromethyl)Phenyl)-1-Methyl-N-(1,2,4-Thiadiazol-5-yl)-1H-Indole-6-Sulfonamide], the IC50 at Nav 1.5 is greater than 10 µM.

As for `COc1cc(F)ccc1-c1cn(C)c2cc(S(=O)(=O)Nc3ncns3)ccc12` [Example 28, 3-(4-FLUORO-2-METHOXYPHENYL)-1-METHYL-N-(1,2,4-Thiadiazol-5-yl)-1H-Indole-6-Sulfonamide], on Nav 1.5, the half-maximal inhibitory concentration (IC50) is greater than 10 µM.

On Nav 1.5, `COc1cc(OC)cc(-c2cn(C)c3cc(S(=O)(=O)Nc4ncns4)ccc23)c1` [Example 29, 3-(3,5-Dimethoxyphenyl)-1-Methyl-N-(1,2,4-Thiadiazol-5-yl)-1H-Indole-6-Sulfonamide] showed an IC50 greater than 10 µM.

`Cn1cc(-c2ccc(F)c(C#N)c2)c2ccc(S(=O)(=O)Nc3ncns3)cc21` [Example 30, 3-(3-Cyano-4-Fluorophenyl)-1-Methyl-N-(1,2,4-Thiadiazol-5-yl)-1H-Indole-6-Sulfonamide] gave a half-maximal inhibitory concentration (IC50) on Nav 1.5 of 7.63 µM.

`Cn1cc(-c2ccc(C#N)c(F)c2)c2ccc(S(=O)(=O)Nc3ncns3)cc21` [Example 31, 3-(4-Cyano-3-Fluorophenyl)-1-Methyl-N-(1,2,4-Thiadiazol-5-yl)-1H-Indole-6-Sulfonamide] returned an IC50 on Nav 1.5 greater than 10 µM.

As to `Cn1cc(-c2ccc(OC(F)(F)F)cc2)c2ccc(S(=O)(=O)Nc3ncns3)cc21` [Example 32, 1-Methyl-N-(1,2,4-Thiadiazol-5-yl)-3-(4-(Trifluoromethoxy)Phenyl)-1H-Indole-6-Sulfonamide], the IC50 at Nav 1.5 is greater than 10 µM.

At Nav 1.5, `Cn1cc(-c2cccc(OC(F)(F)F)c2)c2ccc(S(=O)(=O)Nc3ncns3)cc21` [Example 33, 1-Methyl-N-(1,2,4-Thiadiazol-5-yl)-3-(3-(Trifluoromethoxy)Phenyl)-1H-Indole-6-Sulfonamide] returned an IC50 greater than 10 µM.

Molecule `Cn1cc(-c2cccc(C#N)c2)c2ccc(S(=O)(=O)Nc3ncns3)cc21` [Example 34, 3-(3-Cyanophenyl)-1-Methyl-N-(1,2,4-Thiadiazol-5-yl)-1H-Indole-6-Sulfonamide] returned an IC50 on Nav 1.5 greater than 10 µM.

In the case of `Cn1cc(-c2ccccc2)c2ccc(S(=O)(=O)Nc3ncns3)cc21` [Example 35, 1-Methyl-3-Phenyl-N-(1,2,4-Thiadiazol-5-yl)-1H-Indole-6-Sulfonamide], the IC50 against Nav 1.5 is greater than 10 µM.

At Nav 1.5, `COc1ccc(-c2cn(C)c3cc(S(=O)(=O)Nc4ncns4)ccc23)c(OC)c1` [Example 36, 3-(2,4-Dimethoxyphenyl)-1-Methyl-N-(1,2,4-Thiadiazol-5-yl)-1H-Indole-6-Sulfonamide] yielded a concentration for half-maximal inhibition (IC50) greater than 10 µM.

At Nav 1.5, `Cn1cc(-c2cccc3ccccc23)c2ccc(S(=O)(=O)Nc3ncns3)cc21` [Example 37, 1-Methyl-3-(Naphthalen-1-yl)-N-(1,2,4-Thiadiazol-5-yl)-1H-Indole-6-Sulfonamide] displayed an IC50 greater than 10 µM.

With `Cn1cc(-c2cccc3ncccc23)c2ccc(S(=O)(=O)Nc3ncns3)cc21` [Example 38, 1-Methyl-3-(Quinolin-5-yl)-N-(1,2,4-Thiadiazol-5-yl)-1H-Indole-6-Sulfonamide], the IC50 against Nav 1.5 is greater than 10 µM.

Turning to `Cn1cc(-c2cccc(S(C)(=O)=O)c2)c2ccc(S(=O)(=O)Nc3ncns3)cc21` [Example 39, 1-Methyl-3-(3-(Methylsulfonyl)Phenyl)-N-(1,2,4-Thiadiazol-5-yl)-1H-Indole-6-Sulfonamide], the 50% inhibitory concentration (IC50) against Nav 1.5 is greater than 10 µM.

With `COc1ccc(-c2cn(C)c3cc(S(=O)(=O)Nc4ncns4)ccc23)c2ccccc12` [Example 40, 3-(4-Methoxynaphthalen-1-yl)-1-Methyl-N-(1,2,4-Thiadiazol-5-yl)-1H-Indole-6-Sulfonamide], at Nav 1.5, the IC50 is greater than 10 µM.

For the molecule `COc1ccc(-c2cn(C)c3cc(S(=O)(=O)Nc4ncns4)ccc23)c(Cl)c1` [Example 41, 3-(2-Chloro-4-Methoxyphenyl)-1-Methyl-N-(1,2,4-Thiadiazol-5-yl)-1H-Indole-6-Sulfonamide], the IC50 on Nav 1.5 was greater than 10 µM.

With `Cc1noc(C)c1-c1cn(C)c2cc(S(=O)(=O)Nc3ncns3)ccc12` [Example 42, 3-(3,5-Dimethylisoxazol-4-yl)-1-Methyl-N-(1,2,4-Thiadiazol-5-yl)-1H-Indole-6-Sulfonamide], the concentration for half-maximal inhibition (IC50) against Nav 1.5 is greater than 10 µM.

The molecule `Cn1cc(-c2ccc(Br)cc2C(F)(F)F)c2ccc(S(=O)(=O)Nc3ncns3)cc21` [Example 43, 3-(4-Bromo-2-(Trifluoromethyl)Phenyl)-1-Methyl-N-(1,2,4-Thiadiazol-5-yl)-1H-Indole-6-Sulfonamide] yielded a half-maximal inhibitory concentration (IC50) against Nav 1.5 greater than 10 µM.

In turn, `Cn1cc(-c2ccccc2C(F)(F)F)c2ccc(S(=O)(=O)Nc3ncns3)cc21` [Example 44, 1-Methyl-N-(1,2,4-Thiadiazol-5-yl)-3-(2-(Trifluoromethyl)Phenyl)-1H-Indole-6-Sulfonamide] showed an IC50 against Nav 1.5 greater than 10 µM.

On to `Cc1cnc(N)c(-c2cn(C)c3cc(S(=O)(=O)Nc4ncns4)ccc23)c1` [Example 45, 3-(2-Amino-5-Methylpyridin-3-yl)-1-Methyl-N-(1,2,4-Thiadiazol-5-yl)-1H-Indole-6-Sulfonamide], for which the IC50 on Nav 1.5 was greater than 10 µM.

Regarding `Cc1cc(C#N)ccc1-c1cn(C)c2cc(S(=O)(=O)Nc3ncns3)ccc12` [Example 46, 3-(4-Cyano-2-Methylphenyl)-1-Methyl-N-(1,2,4-Thiadiazol-5-yl)-1H-Indole-6-Sulfonamide], the half-inhibitory concentration (IC50) against Nav 1.5 was greater than 10 µM.

Take `CN(C)c1cccc(-c2cn(C)c3cc(S(=O)(=O)Nc4ncns4)ccc23)c1` [Example 47, 3-(3-(Dimethylamino)Phenyl)-1-Methyl-N-(1,2,4-Thiadiazol-5-yl)-1H-Indole-6-Sulfonamide]: the IC50 against Nav 1.5 was greater than 10 µM.

Consider `Cn1cc(-c2cccc(C(F)(F)F)c2)c2ccc(S(=O)(=O)Nc3ncns3)cc21` [Example 48, 1-Methyl-N-(1,2,4-Thiadiazol-5-yl)-3-(3-(Trifluoromethyl)Phenyl)-1H-Indole-6-Sulfonamide], for which the 50% inhibitory concentration (IC50) against Nav 1.5 was greater than 10 µM.

For the molecule `COc1ccc(-c2cn(C)c3cc(S(=O)(=O)Nc4ncns4)ccc23)cc1C(F)(F)F` [Example 49, 3-(4-Methoxy-3-(Trifluoromethyl)Phenyl)-1-Methyl-N-(1,2,4-Thiadiazol-5-Yl)-1H-Indole-6-Sulfonamide], the IC50 against Nav 1.5 was greater than 10 µM.

The molecule `Cn1nccc1-c1cn(C)c2cc(S(=O)(=O)Nc3ncns3)ccc12` [Example 52, 1-Methyl-3-(1-Methyl-1H-Pyrazol-5-Yl)-N-(1,2,4-Thiadiazol-5-Yl)-1H-Indole-6-Sulfonamide] came in with an IC50 on Nav 1.5 greater than 10 µM.
